Experiments:
[1] = molecular target: T1, rat SST4 receptor (R-SST4) (Rattus norvegicus, UniProt P30937); test: radioligand competition, CHO-K1 membranes, […]-Tyr3-somatostatin-14; format: binding; details: read-out: Mean (±SEM) Ki values (nM) / R-SST4 receptor
T1 construct: gene Sstr4; H4 cells for cAMP

[2] = molecular target: T2, human SST4 receptor (H-SST4) (Homo sapiens, UniProt P31391); test: as above; format: binding; details: read-out: Mean (±SEM) Ki values (nM) / H-SST4 receptor
T2 construct: gene SSTR4; H4 cells (Perkin Elmer) for cAMP

[3] = molecular target: T2, human SST4 receptor (H-SST4); test: LANCE cAMP, inhibition of forskolin-stimulated cAMP, H4 cells; format: cell-based; details: read-out: Mean (±SEM) IC50 values (nM) / H-SST4
[4] = molecular target: T3, human somatostatin receptor type 3 (H-SST3) (Homo sapiens, UniProt P32745); test: radioligand competition, CHO-K1 membranes, […]-Tyr3-somatostatin-14; format: binding; details: read-out: Mean (±SEM) Ki values (nM) / H-SST3 receptor
T3 construct: gene SSTR3; stably expressed in CHO-K1, membranes from Perkin Elmer

[5] = molecular target: T1, rat SST4 receptor (R-SST4); test: LANCE cAMP, inhibition of forskolin-stimulated cAMP, H4 cells; format: cell-based; details: read-out: Mean (±SEM) IC50 values (nM) / R-SST4
[6] = molecular target: T4, human somatostatin receptor type 2 (H-SST2) (Homo sapiens, UniProt P30874); test: radioligand competition, CHO-K1 membranes, […]-Tyr3-somatostatin-14; format: binding; details: read-out: Mean (±SEM) Ki values (nM) / H-SST2 receptor
T4 construct: gene SSTR2; stably expressed in CHO-K1, membranes from Perkin Elmer

[7] = molecular target: T5, human somatostatin receptor type 5 (H-SST5) (Homo sapiens, UniProt P35346); test: as above; format: binding; details: read-out: Mean (±SEM) Ki values (nM) / H-SST5 receptor
T5 construct: gene SSTR5; stably expressed in CHO-K1, membranes from Perkin Elmer; printed catalogue number ES-522-M400UA is the same as for type 3 (likely misprint)

[8] = molecular target: T6, human somatostatin receptor type 1 (H-SST1) (Homo sapiens, UniProt P30872); test: as above; format: binding; details: read-out: Mean (±SEM) Ki values (nM) / H-SST1 receptor
T6 construct: gene SSTR1; stably expressed in CHO-K1, membranes from Perkin Elmer
T6 sequence (P30872 whole entry): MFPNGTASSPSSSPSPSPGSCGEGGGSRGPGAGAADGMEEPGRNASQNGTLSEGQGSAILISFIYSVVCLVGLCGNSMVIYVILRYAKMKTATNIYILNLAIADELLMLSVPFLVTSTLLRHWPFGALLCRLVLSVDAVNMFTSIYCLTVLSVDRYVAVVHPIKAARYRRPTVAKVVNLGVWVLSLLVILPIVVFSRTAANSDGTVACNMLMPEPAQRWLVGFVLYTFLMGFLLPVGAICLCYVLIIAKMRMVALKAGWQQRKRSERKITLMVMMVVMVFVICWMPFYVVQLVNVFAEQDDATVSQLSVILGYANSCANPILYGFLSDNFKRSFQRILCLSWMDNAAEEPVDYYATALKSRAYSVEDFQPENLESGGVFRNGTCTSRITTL

T2 sequence (P31391 whole entry): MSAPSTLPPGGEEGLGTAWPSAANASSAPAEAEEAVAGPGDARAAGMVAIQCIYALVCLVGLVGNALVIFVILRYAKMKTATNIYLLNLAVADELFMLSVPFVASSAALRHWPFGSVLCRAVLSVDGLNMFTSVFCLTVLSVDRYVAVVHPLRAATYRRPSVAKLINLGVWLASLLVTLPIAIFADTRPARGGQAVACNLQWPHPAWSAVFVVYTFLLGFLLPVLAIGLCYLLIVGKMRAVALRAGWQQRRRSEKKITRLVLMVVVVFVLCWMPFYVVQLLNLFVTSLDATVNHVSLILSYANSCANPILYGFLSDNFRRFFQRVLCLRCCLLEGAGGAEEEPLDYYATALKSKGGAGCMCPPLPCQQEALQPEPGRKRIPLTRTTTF
T1 sequence (P30937 whole entry): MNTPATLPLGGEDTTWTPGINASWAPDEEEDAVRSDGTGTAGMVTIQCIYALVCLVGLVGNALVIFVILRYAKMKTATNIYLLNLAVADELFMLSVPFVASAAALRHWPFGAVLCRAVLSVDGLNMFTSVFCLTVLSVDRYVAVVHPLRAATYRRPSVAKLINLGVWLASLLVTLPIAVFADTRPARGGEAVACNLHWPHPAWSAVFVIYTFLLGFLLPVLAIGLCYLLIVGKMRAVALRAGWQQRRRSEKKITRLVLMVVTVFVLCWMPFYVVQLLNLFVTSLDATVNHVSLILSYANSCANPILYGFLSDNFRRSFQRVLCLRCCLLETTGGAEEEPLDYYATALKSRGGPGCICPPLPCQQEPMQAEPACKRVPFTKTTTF
T4 sequence (P30874 whole entry): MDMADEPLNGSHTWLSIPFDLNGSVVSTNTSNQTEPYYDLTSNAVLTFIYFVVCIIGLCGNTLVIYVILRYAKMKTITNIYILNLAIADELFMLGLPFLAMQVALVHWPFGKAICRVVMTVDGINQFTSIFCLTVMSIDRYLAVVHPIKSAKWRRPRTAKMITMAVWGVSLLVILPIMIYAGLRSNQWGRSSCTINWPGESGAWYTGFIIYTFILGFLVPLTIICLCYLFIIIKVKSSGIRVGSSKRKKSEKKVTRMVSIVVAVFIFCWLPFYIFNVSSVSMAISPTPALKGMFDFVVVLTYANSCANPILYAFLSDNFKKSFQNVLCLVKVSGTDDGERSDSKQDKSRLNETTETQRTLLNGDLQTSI
T5 sequence (P35346 whole entry): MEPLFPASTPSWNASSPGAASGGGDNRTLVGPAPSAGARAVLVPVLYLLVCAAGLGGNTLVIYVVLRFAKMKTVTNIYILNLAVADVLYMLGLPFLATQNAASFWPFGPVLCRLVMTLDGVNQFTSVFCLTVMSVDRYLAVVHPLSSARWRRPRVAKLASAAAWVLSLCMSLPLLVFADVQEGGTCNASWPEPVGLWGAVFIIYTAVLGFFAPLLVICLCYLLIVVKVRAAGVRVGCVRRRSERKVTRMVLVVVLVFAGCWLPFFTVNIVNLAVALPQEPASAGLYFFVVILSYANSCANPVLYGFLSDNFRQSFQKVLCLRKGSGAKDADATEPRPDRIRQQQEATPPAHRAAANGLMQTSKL
T3 sequence (P32745 whole entry): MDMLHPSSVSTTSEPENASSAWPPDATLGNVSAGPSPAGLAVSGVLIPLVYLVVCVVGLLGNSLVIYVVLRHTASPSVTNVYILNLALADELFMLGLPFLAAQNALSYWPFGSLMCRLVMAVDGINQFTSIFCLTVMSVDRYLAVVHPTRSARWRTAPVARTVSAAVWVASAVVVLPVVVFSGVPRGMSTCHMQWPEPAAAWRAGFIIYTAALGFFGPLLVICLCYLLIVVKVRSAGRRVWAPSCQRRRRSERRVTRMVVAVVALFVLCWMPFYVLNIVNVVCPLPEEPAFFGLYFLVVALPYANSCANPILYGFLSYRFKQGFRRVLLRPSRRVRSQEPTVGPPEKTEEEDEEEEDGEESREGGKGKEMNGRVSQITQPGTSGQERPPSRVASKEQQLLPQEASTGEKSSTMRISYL

Ki [1]: 0.89 ± 0.64 nM
Ki [2]: 0.56 ± 0.1 nM
IC50 [3]: 0.05 ± 0.01 nM
Ki [4]: 234 ± 112 nM
IC50 [5]: 0.07 ± 0.005 nM
Ki [6]: 25100 nM
Ki [7]: 468 ± 156 nM
Ki [8]: 589 ± 266 nM
SMILES: Cc1ccc(S(=O)(=O)N[C@@H](CCN)C(=O)N[C@@H](Cc2ccccc2)C(N)=O)c2ccccc12 [J-2156, (1′S,2S)-4amino-N-(1′-carbamoyl-2′-phenylethyl)-2-(4″-methyl-1″-naphthalenesulfonylamino)butanamide]

From paper PMC5962878, “The Somatostatin Receptor-4 Agonist J-2156 Alleviates Mechanical Hypersensitivity in a Rat Model of Breast Cancer Induced Bone Pain” (Frontiers in Pharmacology, 2018)
